{"source": "paper PMC9525345", "about": "“Hypoalbuminemia affects the spatio-temporal tissue distribution of ochratoxin A in liver and kidneys: consequences for organ toxicity” (Archives of Toxicology, 2022)", "key": {"mice [1]": {"test_system": "mice", "parameters": "method as in IARC [1993]", "details": "ref IARC [1993], cited from earlier work"}, "[2]": {"parameters": "method as in Anzai et al. [2010]; Ringot et al. [2006]", "details": "ref Anzai et al. [2010]; Ringot et al. [2006]; cited from earlier work"}, "[3]": {"test_system": "wild-type and albumin knockout mice", "test": "Ochratoxin A toxicity experiment: liver (histopathology, ALT, AST)", "format": "in vivo", "details": "24 h; for liver histopathology: 10 mg/kg i.v. single dose", "procedure": "(§1) To study the role of albumin in OTA toxicity, 8-week-old female homozygote and heterozygote albumin-deficient mice, and corresponding C57BL/6 J wild-type controls were challenged intravenously with 10 mg/kg OTA (#10470691, Fisher Scientific) dissolved in 0.1 M NaHCO3, pH 7.4, with an application volume of 2 ml/kg. On day 1 after OTA injection, heart blood samples were collected, and plasma was separated according to a standard protocol (Gianmoena et al. [2021]). In addition, tissue specimens were collected from the left liver lobe and kidneys, fixed for 2 days in 4% paraformaldehyde (#P087-5, Roth), and finally embedded in paraffin for histopathology and immunohistochemistry analyses (Schneider et al. [2021b]).\n(§2) Plasma concentration of albumin, creatinine, and blood urea nitrogen (BUN), as well as activities of alanine transaminase (ALT), and aspartate transaminase (AST) were analyzed by the Piccolo Xpress Chemistry Analyzer (Hitado, Germany) using the Piccolo general chemistry 13 panel (#AB-114-400-0029, Hitado, Germany).\n(§3) Hematoxylin and eosin (H&E) staining was performed in 4 µm-thick paraffin-embedded liver and kidney tissue sections as previously described (Campos et al. [2020]).\n(§4) Visualization of albumin protein expression in the liver tissue, and immune cell infiltration in the liver and kidney tissues was done by immunohistochemistry using an autostainer (Discovery Ultra Automated Slide Preparation System, Roche, Germany) (Ghallab et al. [2021b]). For this purpose, 4 µm-thick paraffin-embedded liver or kidney tissue sections were incubated with primary antibodies against albumin (# ab192603, abcam), CD45 (a pan leukocyte marker; #550,539, BD Bioscience), and FSP1 (a marker of inflammatory subpopulation of macrophages (Österreicher et al. [2011]) (#ab197896, Abcam). Dilutions of the primary antibodies as well as the used secondary antibodies are described in Table 2. Following staining, entire slides were scanned (Axio Scan.Z1, Zeiss, Germany) and representative images are shown in the results section."}, "[4]": {"parameters": "method as in Perry et al. [2003]", "details": "weak organic acid; ref Perry et al. [2003]; cited from earlier work"}, "[5]": {"parameters": "method as in O'Brien and Dietrich [2005]; Ringot et al. [2006]", "details": "human; ref O'Brien and Dietrich [2005]; Ringot et al. [2006]; cited from earlier work"}, "[6]": {"parameters": "method as in EFSA [2020]", "details": "ref EFSA [2020]; cited from earlier work"}, "[7]": {"test": "Intravital two-photon imaging of OTA transport in the kidneys", "format": "in vivo, mice", "details": "5 mg/kg tail vein bolus", "excerpt": "(§5) Intravital imaging of OTA transport in the livers and the kidneys of anesthetized wild-type and albumin knockout mice was done using an inverted two-photon microscope (LSM MP7, Zeiss, Germany). Details of the surgical preparation of the mice and exposure of the liver and the kidneys for imaging were previously described (Ghallab et al. [2021a]; Reif et al. [2017]). Tissue morphology was visualized by intravenous administration of the mitochondrial membrane potential marker tetramethylrhodamine ethyl ester (TMRE) (#T669, ThermoFisher Scientific) approximately 10 min before recording (Table 2). To image its transport kinetics in the liver and kidneys, a bolus of OTA (5 mg/kg) was administered via a tail vein catheter (SAI-infusion, IL, USA) within approximately 20 s after the onset of recording; the first few frames recorded prior to the OTA administration served to detect the basal tissue auto-fluorescence (Table 2). The mice were kept under controlled ambient temperature conditions of 36 °C, with exposure to a maintenance isoflurane inhalation anesthesia during the entire recording session.\n(§6) During image processing, rigid body registration was performed using StackReg (Thévenaz et al. [1998]) to compensate for tissue movement in the recorded time series. From these stabilized videos, 2D projections were generated using average and standard deviation operators. The pixel classification and autocontext workflows of the interactive image segmentation software ilastik (version 1.3.3post1) (Berg et al. [2019]) were used for compartment segmentation in the 2D projections of liver and kidney. The compartments considered are sinusoids, hepatocyte cytoplasm and bile canaliculi in the liver, as well as inter-tubular capillaries, renal tubular lumen, and the tubular epithelial cells in the kidney. Mean raw OTA intensities were measured per compartment and frame. In addition, for the kidney, mean OTA intensities per tubule were measured based on the signal in the TMRE positive cell compartment, and tubules were subsequently grouped into two sets using k-means clustering based on their maximum mean OTA intensity over time.\n(§7) For the calculation of the elimination half-life, Microsoft excel was used. First, the decadic logarithm of the intensity was plotted against the time. Then, the linear declining portion of the curve was selected manually and used for construction of a trend line. Next, the slope of the trendline was multiplied by 2.303 to convert the decadic to the natural logarithm and enable usage of the following formulas: • kel = -slope (Certara knowledgebase) • T ½ = ln (2) /kel (Certara knowledgebase)"}, "[8]": {"test": "Intravital two-photon imaging of OTA transport in the liver", "format": "in vivo, mice", "excerpt": "as §5, §6, §7"}, "mice [9]": {"test_system": "mice", "parameters": "method as in Bendele et al. [1985]; Kanisawa and Suzuki [1978]", "details": "mice-fed diets containing 40 ppm, equivalent to 5.6 mg/kg b.w. per day; ref Bendele et al. [1985]; Kanisawa and Suzuki [1978]; cited from earlier work"}, "[10]": {"parameters": "method as in O'Brien and Dietrich [2005]; Ringot et al. [2006]", "details": "mice, per os; ref O'Brien and Dietrich [2005]; Ringot et al. [2006]; cited from earlier work"}, "[11]": {"test_system": "wild-type and albumin knockout mice", "test": "Ochratoxin A toxicity experiment: kidney (histopathology, creatinine, BUN, CD45)", "format": "in vivo", "details": "24 h", "procedure": "as §1, §2, §3, §4"}, "HSA": {"test_system": "HSA", "parameters": "method as in Poor et al. [2013]; Sueck et al. [2018]", "details": "ref Poor et al. [2013], Sueck et al. [2018]; cited from earlier work"}, "[12]": {"details": "heterozygous albumin knockout mice"}, "[13]": {"details": "homozygous albumin knockout mice"}}, "note": "Read-outs that look alike come from different tables or passages of the source.", "data": [{"smiles": "C[C@@H]1Cc2c(Cl)cc(C(=O)N[C@@H](Cc3ccccc3)C(=O)O)c(O)c2C(=O)O1", "note": "[OTA, Ochratoxin A]", "values": [{"measurement": "Acute toxicity LD50", "setting": "mice [1]; i.v.", "value": "25.7 to 33.8", "unit": "mg/kg"}, {"measurement": "Acute toxicity LD50", "setting": "mice [1]; p.o.", "value": "46 to 58.3", "unit": "mg/kg"}, {"measurement": "plasma protein-binding capacity", "setting": "[2]", "value": "> 99", "unit": "%"}, {"measurement": "liver histopathology", "setting": "[3]; [12]", "value": "massive pericentral necrosis and hemorrhage"}, {"measurement": "blood biomarkers of liver injury ALT and AST", "setting": "[3]; heterozygous albumin-deficient mice compared to wild-type and homozygous, 10 mg/kg i.v.", "value": "significantly increased values"}, {"measurement": "liver histopathology", "setting": "[3]; [13]", "value": "appeared smaller compared to the heterozygous animals"}, {"measurement": "liver histopathology", "setting": "[3]; wild-type mice", "value": "small clusters of dead cells in the pericentral compartment of the liver lobule"}, {"measurement": "pKa, carboxyl group", "setting": "[4]", "value": 4.3}, {"measurement": "pKa, phenolic hydroxyl group", "setting": "[4]", "value": 7.2}, {"measurement": "Half-life in blood t1/2", "setting": "[5]", "value": 35.5, "unit": "days"}, {"measurement": "Log Pow", "setting": "[6]", "value": 4.37}, {"measurement": "OTA signal in tubular lumen and tubular epithelial cells", "setting": "[7]; [12]", "value": "a longer duration and higher intensity of the OTA signal in the tubular epithelial cells"}, {"measurement": "OTA signal in tubular lumen and tubular epithelial cells", "setting": "[7]; [13]", "value": "rapid filtration into the renal tubular lumen and enrichment into the tubular epithelial cells"}, {"measurement": "half-life", "setting": "[7]; mouse, renal blood capillaries (kidney), intravenous, homozygous albumin knockout mice, read-out: half-life of OTA signal in renal blood capillaries", "value": "~0.28", "unit": "min"}, {"measurement": "OTA signal in tubular lumen and tubular epithelial cells", "setting": "[7]; wild-type mice", "value": "only a weak, transient increase was seen in the lumen and cytoplasm of the tubular epithelial cells"}, {"measurement": "transport of OTA to hepatocytes and bile canaliculi", "setting": "[8]; heterozygous albumin knockout mice, 5 mg/kg tail vein bolus", "value": "transient increases in hepatocytes and enrichment in bile canaliculi"}, {"measurement": "disappearance of OTA from blood after bolus injection", "setting": "[8]; [13]", "value": "completely disappeared from the blood of homozygous albumin knockout mice within a minute"}, {"measurement": "transport of OTA to hepatocytes and bile canaliculi", "setting": "[8]; homozygous albumin knockout mice, 5 mg/kg tail vein bolus", "value": "massively increased canalicular secretion with almost no increase in the hepatocytes"}, {"measurement": "half-life", "setting": "[8]; mouse, sinusoidal blood (liver), intravenous, homozygous albumin knockout mice, 5 mg/kg tail vein bolus, read-out: half-life of OTA signal in sinusoidal blood", "value": "~0.22", "unit": "min"}, {"measurement": "transport of OTA to hepatocytes and bile canaliculi", "setting": "[8]; wild-type mice, 5 mg/kg tail vein bolus", "value": "No transport of OTA to hepatocytes and bile canaliculi was detectable"}, {"measurement": "tumor induction in chronic toxicity studies", "setting": "mice [9]", "value": "induced liver and kidney tumors"}, {"measurement": "Half-life in blood t1/2", "setting": "[10]", "value": 40, "unit": "h"}, {"measurement": "blood biomarkers of kidney damage, creatinine and urea nitrogen", "setting": "[11]; between the three mouse models, 10 mg/kg i.v.", "value": "no significant differences"}, {"measurement": "immune cell infiltration in kidney (CD45)", "setting": "[11]; wild type and albumin knockout mice, 10 mg/kg i.v.", "value": "no obvious immune cell infiltration"}, {"measurement": "macroscopical or histopathological alterations in kidney tissue", "setting": "[11]; wild-type, heterozygous and homozygous knockout mice, 10 mg/kg i.v. single dose", "value": "did not cause obvious macroscopical or histopathological alterations in the kidney tissue"}, {"measurement": "Albumin binding K", "setting": "HSA", "value": "~10^7"}, {"measurement": "Albumin binding log K", "setting": "HSA", "value": "7.0 – 7.6"}]}]}
